Data: patent US7129334B2, “Synthetic peptide and uses for same” (priority 2001, dated 2006)
Where no end group is shown, it is not given here.

Key:
PC12 cells = test: Neurite growth on PC12 cells; type: cell-based
Method: Biological Activity of Fragments on PC12 cells: The trypsin digested fragments in various concentrations were tested for neurite growth on PC12 cells. Tissue culture plates having 24 wells were seeded with 10^5 PC12 cells in serum free Dulbeco Modified Eagle's medium (DMEM). The results were read after 96 hours for neurite outgrowth.

4 mm punched wounds = 4 mm punched wounds on the back of mice; type: in vivo
Method: Experimentally produced 4 mm punched wounds on the back of mice were treated with β taipoxin to compare with Oxynor peptide-10 treatment.

[1] = Mitogenic activity of synthetic constructs (deletion series); type: cell-based; details: constructs of 5 to 21 amino acids compared
Excerpt: Several synthetic constructs were made based on portions of this sequence by deleting one amino acid from one terminal at a time. In this manner, several constructs consisting of 5 to 21 amino acids were made and tested for mitogenic activity. […] […] This peptide is designated hereinafter as Oxynor peptide -10.

[2] = test system: 6 mm ischemic skin wounds; test: 6 mm ischemic skin wounds in rat; type: in vivo; details: 100 μg/ml in hydrogel vehicle once daily; days 7 and 10
Method: Natural β-taipoxin and Oxynor peptide-10 were tested against each other in vivo at a concentration of 100 μg/ml in hydrogel vehicle applied once daily to help heal 6 mm ischemic skin wounds in rat. At days 7 and 10 the wounds treated with Oxynor peptide-10 were about 15% smaller in area than the wounds treated with natural β-taipoxin.

Anti-β-taipoxin = test: Immunological reaction with anti-β-taipoxin; type: binding, mice
Excerpt: This proves that Oxynor peptide-10 is an integral part of the natural β-taipoxin.

| Substance | neurite growth of trypsin digest fragments (PC12 cells; 10^5 PC12 cells, serum free DMEM, read after 96 hours) | closure of wounds (4 mm punched wounds; after six days, PBS controls open) | histological examination of the skin around the wounds (4 mm punched wounds; mice, treated wounds) | mitogenic activity [1] | neurite growth on PC12 cells (PC12 cells; similar concentrations (2 to 5) in serum-free medium) | wound area smaller than wounds treated with natural β-taipoxin [2] | immunological reaction with anti-β-taipoxin made in mice (Anti-β-taipoxin) |
| --- | --- | --- | --- | --- | --- | --- | --- |
| KGGSLLNFANLIENDVPIDHM [Oxynor peptide-21] | most neurite growth at the lowest concentration |  |  |  |  |  |  |
| SLLNFANLIE [Oxynor peptide-10] |  | complete closure of the wounds | epidermis almost like normal skin | most active | produced neurite growth | about 15% | reacted immunologically |
| Ser Leu Leu Asn Phe (SLLNF; SYNTHESIZED. CORRESPONDS TO POSITIONS 4-8 ABOVE.) [Oxynor peptide-5] |  |  |  | active, but less active |  |  |  |
